Measured values published in US20240158350A1, “ESTER ANALOGS OF PSILOCIN, PROCESSES FOR THE PREPARATION THEREOF, AND METHODS OF USE” (Invyxis, Inc., priority 2022, published 2024).
Like-named read-outs stand apart in the source and are kept apart here.

How the values were obtained:
[1] = biological target: human serotonin 5HT2A receptor (Homo sapiens, UniProt P28223); experiment: 5HT2A receptor radioligand displacement assay; parameters: key to the marks not given beside the values; conditions: displacement of [3H]-ketanserin or [3H]-LSD, HEK293 membranes
human serotonin 5HT2A receptor, sequence (P28223 whole entry): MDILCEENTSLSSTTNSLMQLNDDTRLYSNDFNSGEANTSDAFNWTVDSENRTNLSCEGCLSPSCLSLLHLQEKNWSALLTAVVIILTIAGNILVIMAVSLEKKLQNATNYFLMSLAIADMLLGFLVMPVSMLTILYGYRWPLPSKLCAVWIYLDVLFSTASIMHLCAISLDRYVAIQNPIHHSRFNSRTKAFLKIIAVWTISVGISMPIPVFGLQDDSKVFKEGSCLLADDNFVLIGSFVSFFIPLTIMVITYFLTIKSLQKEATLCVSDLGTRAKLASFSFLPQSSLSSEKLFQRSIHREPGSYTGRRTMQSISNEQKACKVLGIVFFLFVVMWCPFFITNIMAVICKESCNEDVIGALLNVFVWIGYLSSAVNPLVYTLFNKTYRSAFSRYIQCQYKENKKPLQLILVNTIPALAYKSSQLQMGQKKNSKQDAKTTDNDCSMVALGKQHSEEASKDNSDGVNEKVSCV

[2] = Stability in fasted state simulated gastric fluid (FaSSGF); type: in vitro ADME; conditions: 37° C., 60 min vs T0
Procedure: Fasted state simulated gastric fluid (FaSSGF). FaSSGF was prepared according to the manufacturer instructions (Biorelevant, UK). Test compounds (2 μL of 200 μM solution) were added to a 96-well plate containing 198 μL FaSSGF per well. The mixture was incubation in a thermomixer at 37° C. for 60 min. Sample aliquots were removed (40 μL, from T0 and 60 min.) and quenched with acetonitrile containing 0.5 μM glyburide (IS), and the supernatant collected by centrifugation (2500 rpm, 15 min.). LC-MS was performed using an Agilent MSD (electrospray in positive ionization) equipped with a Kinetic C18 reverse-column. The percent of test compound remaining was calculated using the ratio of the peak area of intact test compound at 60 min. over T0. The percent of psilocin release was calculated by comparing the peak area of psilocin at 60 min, (for test compound) vs. peak area at T0 (2 μM psilocin).

[3] = Single-dose oral pharmacokinetics in C57BL6 mice (plasma and brain); type: in vivo; conditions: for Cmax: read-out: Parent PK Cmax
Procedure: The single-dose pharmacokinetics of test compounds were analyzed relative to control (psilocin) in C57BL6 mice via oral (PO) administration. Test compound was dissolved in DMSO and transferred to a 15-mL tube, followed by addition of Tween-80, PEG-400, and water to final volume. The resulting formulation (0.3 mg/mL compound, in DMSO (1%), Tween-80 (5%), and PEG-400 (25%) in water (69%)) was vortexed for 2 min. and mixed by inversion.
Male C57BL6 mice (3× per compound, (at a weight ˜20g)) received a single dose (oral) of test compound at 3.0 mg/kg. Blood samples were collected pre-dose and at 0.083, 0.25, 0.5, 1, 2, 4, 8, 24-hour post-dose to yield approximately 20 μL of pooled plasma (3× mice) per time point. Brain tissues were collected at 2- and 8-hr post-dose. Brain was flushed with saline solution using a perfusion needle through the ascending aorta of the ventricle to remove any remaining blood prior to collection. Plasma and brain homogenate samples were stored at −80° C. prior to extraction for LC-MS/MS analysis.
Samples were analyzed by LC-MS/MS to quantify the amounts of test compound and control (psilocin). The calculation of the pharmacokinetic (PK) parameters (AUCt, AUCinf, Cmax, Tmax, T1/2, and Kel) can be performed using a non-compartmental analysis (trapezoidal method).

[4] = IP-One incubation stability (cell-treated stimulation medium, LC-MS); type: in vitro ADME; conditions: 2 μM, 60 min vs T0, 37° C., medium on CHO-K1 cells expressing 5-HT2A
Procedure: IP-One incubation. CHO-K1 cells expressing recombinant Serotonin receptor 5-HT2A (Perkin Elmer, Waltham, MA), were seeded in 96-well plates (˜80,000 cells/well) and treated with 28 μL (per well) of stimulation medium (IP-One HTRF® kit) containing test compounds (2 μM) for 1 hr in a CO2 incubator (5%) at 37° C. The cell-treated medium from 3 wells were pooled together to provide 40 μL for LC-MS analysis. Aliquots for each compound were collected at time zero (T0, 100% intact test compound) and 60-min. The incubated medium (40 μL) was quenched with 120 μL of acetonitrile containing 0.5 μM glyburide (IS), and the supernatant was collected by centrifugation (2500 rpm, 15 min.). LC-MS was performed using an Agilent MSD (electrospray in positive ionization) equipped with a Kinetic C18 reverse-column. The percent of test compound remaining is calculated using the ratio of the peak areas of intact test compound at 60 min. over T0. The percent of psilocin release is calculated by comparing the peak area of psilocin at 60 min. (for test compound) vs. peak area at T0 (2 μM psilocin). Results are summarized in Table 1, (rel to % parent detected; and % psilocin detected at 1 hr).

[5] = male, C57BL6, mouse, parent compound in brain, 2 h post-dose, 3.0 mg/kg PO, read-out: Parent PK [brain] 2 h
[6] = male, C57BL6, mouse, parent compound in plasma, 3.0 mg/kg PO

Structure (SMILES) | Activity relative to psilocin [1] | % parent compound [2] [%] | % parent compound [4] [%] | also measured
CN(C)CCc1c[nH]c2cccc(OC(=O)C(C)(C)C(=O)Oc3cccc4[nH]cc(CCN(C)C)c34)c12 [drawing 59] | +++ | – | – | –
CN(C)CCc1c[nH]c2cccc(OC(=O)CCC(=O)Oc3cccc4[nH]cc(CCN(C)C)c34)c12 [drawing 49] | – | 97.1 | – | –
CN(C)CCc1c[nH]c2cccc(OC(=O)CCCC(=O)Oc3cccc4[nH]cc(CCN(C)C)c34)c12 [Test Compound B, bis(3-(2-(dimethylamino)ethyl)-1H-indol-4-yl) glutarate] | – | – | – | PK profile (absorption, elimination) ([3]; 3.0 mg/kg PO, in words): good PK profile as a psilocin prodrug; parent compound detected in plasma or brain samples ([3]; 3.0 mg/kg PO, in words): no parent compound was detected in any of the plasma or brain samples; concentration at 2 h [3, 5]: 0 ng/mL; psilocin detected after administration of test compound ([3]; plasma and brain, in words): psilocin was detected in quantifiable amounts
CN(C)CCc1c[nH]c2cccc(OC(=O)[C@H]3C[C@@H]3C(=O)Oc3cccc4[nH]cc(CCN(C)C)c34)c12 [drawing 54] | – | 95.5 | – | –
CN(C)CCc1c[nH]c2cccc(OC(=O)C(C)(C)C(=O)Oc3cccc4[nH]cc(CCN(C)C)c34)c12 [drawing 43] | – | – | 86.8 | –
CN(C)CCc1c[nH]c2cccc(OC(=O)c3ccccc3F)c12 [drawing 55] | – | 97.5 | – | –
CN(C)CCc1c[nH]c2cccc(OC(=O)c3ccc(Br)cc3)c12 [drawing 50] | – | 93.8 | – | –
CN(C)CCc1c[nH]c2cccc(OC(=O)[C@H]3C[C@@H]3C(=O)Oc3cccc4[nH]cc(CCN(C)C)c34)c12 [drawing 62] | +++ | – | – | –
CN(C)CCc1c[nH]c2cccc(OC(=O)C(C)(C)C(=O)Oc3cccc4[nH]cc(CCN(C)C)c34)c12 [Test Compound A, bis(3-(2-(dimethylamino)ethyl)-1H-indol-4-yl) 2,2-dimethylmalonate] | – | – | – | PK profile (absorption, elimination) ([3]; 3.0 mg/kg PO, in words): quick absorption of the compound, but with a long elimination phase; brain penetration of the parent compound ([3]; 3.0 mg/kg PO, in words): delayed brain penetration of the parent compound; concentration at 2 h [3, 5]: 0.5 ng/mL; AUC ([3]; male, C57BL6, mouse, parent compound in plasma, 3.0 mg/kg PO, read-out: Parent PK AUC): 39 ng·h/mL; Cmax [3, 6]: 4.2 ng/mL; Parent [brain] at 8 h ([3]; parent compound in brain, 8 h post-dose (footnote)): **[brain] at 8 h is 6 ng/mL.
CN(C)CCc1c[nH]c2cccc(OC(=O)CCCC(=O)Oc3cccc4[nH]cc(CCN(C)C)c34)c12 [drawing 44] | – | – | 71.5 | –
CN(C)CCc1c[nH]c2cccc(OC(=O)[C@H]3C[C@@H]3C(=O)Oc3cccc4[nH]cc(CCN(C)C)c34)c12 [drawing 46] | – | – | 76.1 | –
CN(C)CCc1c[nH]c2cccc(OC(=O)C(C)(C)C(=O)Oc3cccc4[nH]cc(CCN(C)C)c34)c12 [drawing 51] | – | 94.7 | – | –
CN(C)CCc1c[nH]c2cccc(O)c12 [Psilocin, 4-hydroxy-N,N-dimethyltryptamine] | ++ | 72.2 | 87.4 | psilocin in the brain at 8-h post-dose ([3]; 8-h post-dose): No psilocin in the brain was detected; psilocin plasma concentration (estimate) ([3]; estimate based on other pharmacokinetic data): ~5 ng/mL; concentration at 2 h ([3]; male, C57BL6, mouse, brain, oral, 3 mg/kg, 2-h post-dose, range over animals, read-out: Psilocin concentration in the brain): 40 to 78 ng/g; Kp at 2 h ([3]; male, C57BL6, mouse, brain, oral, 3 mg/kg, 2-h post-dose, with estimated plasma concentration of 5 ng/mL, read-out: mean brain/plasma (B/P) ratio): 11.2 ± 4.3; concentration at 2 h [3, 5]: 54 ng/mL; Cmax [3, 6]: ~5 ng/mL
CN(C)CCc1c[nH]c2cccc(OC(=O)CCCC(=O)Oc3cccc4[nH]cc(CCN(C)C)c34)c12 [drawing 52] | – | 94.5 | – | –
CN(C)CCc1c[nH]c2cccc(OC(=O)c3cccc(C(=O)Oc4cccc5[nH]cc(CCN(C)C)c45)c3)c12 [drawing 45] | – | – | 52.1 | –
CN(C)CCc1c[nH]c2cccc(OC(=O)c3cccc(C(=O)Oc4cccc5[nH]cc(CCN(C)C)c45)c3)c12 [drawing 61] | +++ | – | – | –
CN(C)CCc1c[nH]c2cccc(OC(=O)CCC(=O)Oc3cccc4[nH]cc(CCN(C)C)c34)c12 [drawing 41] | – | – | 61.7 | –
CN(C)CCc1c[nH]c2cccc(OC(=O)c3ccc(Br)cc3)c12 [drawing 58] | ++ | – | – | –
CN(C)CCc1c[nH]c2cccc(OC(=O)CCC(=O)Oc3cccc4[nH]cc(CCN(C)C)c34)c12 [drawing 57] | +++ | – | – | –
CN(C)CCc1c[nH]c2cccc(OC(=O)c3ccc(Br)cc3)c12 [drawing 42] | – | – | 9.1 | –
CN(C)CCc1c[nH]c2cccc(OC(=O)CCCC(=O)Oc3cccc4[nH]cc(CCN(C)C)c34)c12 [drawing 60] | +++ | – | – | –
CN(C)CCc1c[nH]c2cccc(OC(=O)c3ccccc3F)c12 [drawing 47] | – | – | 11.4 | –
CN(C)CCc1c[nH]c2cccc(OC(=O)c3cccc(C(=O)Oc4cccc5[nH]cc(CCN(C)C)c45)c3)c12 [drawing 53] | – | 93.5 | – | –
CN(C)CCc1c[nH]c2cccc(OC(=O)c3ccccc3F)c12 [drawing 63] | ++ | – | – | –
